target: TBK1 (Homo sapiens (Human), UniProt Q9UHD2); test: TBK1 low ATP kinase assay (in vitro assay 1); assay type: biochemical; settings: TBK1 low ATP kinase assay IC50, in vitro assay 1
Sequence (Q9UHD2 whole entry): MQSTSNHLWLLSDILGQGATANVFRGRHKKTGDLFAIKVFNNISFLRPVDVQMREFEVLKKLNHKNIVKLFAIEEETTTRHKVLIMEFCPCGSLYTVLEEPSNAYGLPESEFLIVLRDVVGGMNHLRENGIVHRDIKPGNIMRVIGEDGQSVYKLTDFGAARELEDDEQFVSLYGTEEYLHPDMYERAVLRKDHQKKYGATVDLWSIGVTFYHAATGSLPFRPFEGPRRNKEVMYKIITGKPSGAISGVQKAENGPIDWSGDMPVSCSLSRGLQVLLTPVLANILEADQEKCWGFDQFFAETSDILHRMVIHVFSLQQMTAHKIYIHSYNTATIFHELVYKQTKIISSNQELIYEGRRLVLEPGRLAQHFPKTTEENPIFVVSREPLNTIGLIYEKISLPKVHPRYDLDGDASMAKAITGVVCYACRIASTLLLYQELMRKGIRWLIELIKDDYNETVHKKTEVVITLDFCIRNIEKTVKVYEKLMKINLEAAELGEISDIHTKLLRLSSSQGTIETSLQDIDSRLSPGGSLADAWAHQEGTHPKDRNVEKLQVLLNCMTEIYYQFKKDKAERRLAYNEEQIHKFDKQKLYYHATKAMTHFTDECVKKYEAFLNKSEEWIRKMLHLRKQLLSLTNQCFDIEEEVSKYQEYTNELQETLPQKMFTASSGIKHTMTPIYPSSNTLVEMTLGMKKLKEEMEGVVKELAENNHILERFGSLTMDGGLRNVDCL

Row | SMILES | IC50 [nM]
1 | CC(c1ccnc(Nc2nc3ccc(-c4cc(N(C)C)ncn4)cc3[nH]2)c1)N1CCN(C(=O)CC(F)(F)F)CC1 (single isomer, unassigned) [Example 100.01, 1-(4-{(1R or 1S)-1-[2-({6-[6-(dimethylamino)pyrimidin-4-yl]-1H-benzimidazol-2-yl}amino)pyridin-4-yl]ethyl}piperazin-1-yl)-3,3,3-trifluoropropan-1-one] | 1.5

same assay, conditions: in vitro assay 1, read-out: TBK1 low ATP kinase assay IC50

Row | SMILES | IC50 [nM]
2 | CC(c1ccnc(Nc2nc3ccc(-c4cc(N5CC(F)(F)C5)ncn4)cc3[nH]2)c1)N1CCN(C(=O)C2(C(F)(F)F)CC2)CC1 (single isomer, unassigned) [Example 116.04, (4-{(1R or 1S)-1-[2-({6-[6-(3,3-difluoroazetidin-1-yl)pyrimidin-4-yl]-1H-benzimidazol-2-yl}amino)pyridin-4-yl]ethyl}piperazin-1-yl)[1-(trifluoromethyl)cyclopropyl]methanone] | 1
3 | CC(c1ccnc(Nc2nc3ccc(-c4cnn(CC5CC5)c4)c(F)c3[nH]2)c1)N1CCN(C(=O)CC(F)(F)F)CC1 (single isomer, unassigned) [Example 121.02] | 2.5
4 | Cc1nccc(-c2ccc3nc(Nc4cc(CN5CCN(C(=O)CC(F)(F)F)CC5)ccn4)[nH]c3c2)c1Cl [Example 130.02, 1-{4-[(2-{[6-(3-chloro-2-methylpyridin-4-yl)-1H-benzimidazol-2-yl]amino}pyridin-4-yl)methyl]piperazin-1-yl}-3,3,3-trifluoropropan-1-one] | 190
5 | COc1cnccc1-c1ccc2nc(Nc3cc(CN4CCN(C(=O)C5CC5)CC4)ccn3)[nH]c2c1OCC(C)C [Example 50.02, cyclopropyl{4-[(2-{[6-(3-methoxypyridin-4-yl)-7-(2-methylpropoxy)-1H-benzimidazol-2-yl]amino}pyridin-4-yl)methyl]piperazin-1-yl}methanone] | 333
6 | O=C(CC(F)(F)F)N1CCN(Cc2ccnc(Nc3nc4ccc(-c5cc(OCC6CCC6)ncn5)cc4[nH]3)c2)CC1 [Example 159.02, 1-(4-{[2-({6-[6-(cyclobutylmethoxy)pyrimidin-4-yl]-1H-benzimidazol-2-yl}amino)pyridin-4-yl]methyl}piperazin-1-yl)-3,3,3-trifluoropropan-1-one] | 15
7 | Cc1nccc(-c2ccc3nc(Nc4cc(C(C)N5CCN(C(=O)C6CC6)CC5)ccn4)[nH]c3c2)n1 (racemic) [Example 24.04.01, (rac)-cyclopropyl{4-[1-(2-{[6-(2-methylpyrimidin-4-yl)-1H-benzimidazol-2-yl]amino}pyridin-4-yl)ethyl]piperazin-1-yl}methanone] | 9.19
8 | COCc1cc(-c2ccc3nc(Nc4cc(CN5CCN(C(=O)C6CC6)CC5)ccn4)[nH]c3c2)ncn1 [Example 79.02, cyclopropyl(4-{[2-({6-[6-(methoxymethyl)pyrimidin-4-yl]-1H-benzimidazol-2-yl}amino)pyridin-4-yl]methyl}piperazin-1-yl)methanone] | 4.8
9 | Cc1nccc(-c2ccc3nc(Nc4cc(CN5CCN(C(=O)CC6CC6)CC5)ccn4)[nH]c3c2)n1 [Example 24.01.04, 2-cyclopropyl-1-{4-[(2-{[6-(2-methylpyrimidin-4-yl)-1H-benzimidazol-2-yl]amino}pyridin-4-yl)methyl]piperazin-1-yl}ethanone] | 44.4
10 | COc1cncnc1-c1ccc2nc(Nc3cc(C(C)N4CCN(C(=O)C5CC5)CC4)ccn3)[nH]c2c1 (racemic) [Example 35.02.03, (rac)-cyclopropyl{4-[1-(2-{[6-(5-methoxypyrimidin-4-yl)-1H-benzimidazol-2-yl]amino}pyridin-4-yl)ethyl]piperazin-1-yl}methanone] | 6.29
11 | COc1ccncc1-c1ccc2nc(Nc3cc(CN4CCN(C(=O)C5CC5)CC4)ccn3)[nH]c2c1 [Example 14.03, cyclopropyl{4-[(2-{[6-(4-methoxypyridin-3-yl)-1H-benzimidazol-2-yl]amino}pyridin-4-yl)methyl]piperazin-1-yl}methanone] | 550
12 | CCOc1ncnc(-c2ccc3nc(Nc4cc(CN5CCN(C(=O)C6(C(F)(F)F)CC6)CC5)ccn4)[nH]c3c2)c1OC [Example 167.04] | 23.7
13 | Cc1ncc(C)c(-c2ccc3nc(Nc4cc(CN5CCN(C(=O)CC(F)(F)F)CC5)ccn4)[nH]c3c2)n1 [Example 33.02, 1-{4-[(2-{[6-(2,5-dimethylpyrimidin-4-yl)-1H-benzimidazol-2-yl]amino}pyridin-4-yl)methyl]piperazin-1-yl}-3,3,3-trifluoropropan-1-one] | 1590
14 | CC(c1ccnc(Nc2nc3ccc(-c4cc(N(C)C)ncn4)cc3[nH]2)c1)N1CCN(C(=O)C2CC2)CC1 (single isomer, unassigned) [Example 100.03, cyclopropyl(4-{(1R or 1S)-1-[2-({6-[6-(dimethylamino)pyrimidin-4-yl]-1H-benzimidazol-2-yl}amino)pyridin-4-yl]ethyl}piperazin-1-yl)methanone] | 2
15 | COc1cc(-c2ccc3nc(Nc4cc(CN5CCN(C(=O)CC(F)(F)F)CC5)ccn4)[nH]c3c2)c(F)cn1 [Example 03.02, 3,3,3-trifluoro-1-{4-[(2-{[6-(5-fluoro-2-methoxypyridin-4-yl)-1H-benzimidazol-2-yl]amino}pyridin-4-yl)methyl]piperazin-1-yl}propan-1-one] | 232
16 | Cc1c(-c2ccc3nc(Nc4cc(CN5CCN(C(=O)C6CC6)CC5)ccn4)[nH]c3c2)ccnc1OC(C)C [Example 11.01, cyclopropyl(4-{[2-({6-[3-methyl-2-(propan-2-yloxy)pyridin-4-yl]-1H-benzimidazol-2-yl}amino)pyridin-4-yl]methyl}piperazin-1-yl)methanone] | 3610
17 | COc1c(NC2CCC2)ncnc1-c1ccc2nc(Nc3cc(C(C)N4CCN(C(=O)CC(F)(F)F)CC4)ccn3)[nH]c2c1 (single isomer, unassigned) [Example 114.02, 1-(4-{(1R or 1S)-1-[2-({6-[6-(cyclobutylamino)-5-methoxypyrimidin-4-yl]-1H-benzimidazol-2-yl}amino)pyridin-4-yl]ethyl}piperazin-1-yl)-3,3,3-trifluoropropan-1-one] | 8.27
18 | Cc1noc(-c2ccc3nc(Nc4cc(CN5CCN(C(=O)CC(F)(F)F)CC5)ccn4)[nH]c3c2C)n1 [Example 54.01, 3,3,3-trifluoro-1-{4-[(2-{[7-methyl-6-(3-methyl-1,2,4-oxadiazol-5-yl)-1H-benzimidazol-2-yl]amino}pyridin-4-yl)methyl]piperazin-1-yl}propan-1-one] | 243
19 | O=C(C1CC1)N1CCN(Cc2ccnc(Nc3nc4ccc(-c5ncnc6ccoc56)cc4[nH]3)c2)CC1 [Example 168.03, cyclopropyl{4-[(2-{[6-(furo[3,2-d]pyrimidin-4-yl)-1H-benzimidazol-2-yl]amino}pyridin-4-yl)methyl]piperazin-1-yl}methanone] | 7.12
20 | CC(c1ccnc(Nc2nc3ccc(-c4cc(N5CCCC5)ncn4)cc3[nH]2)c1)N1CCN(C(=O)OC(C)(C)C)CC1 (single isomer, unassigned) [Example 117.01, tert-butyl 4-{(1R or 1S)-1-[2-({6-[6-(pyrrolidin-1-yl)pyrimidin-4-yl]-1H-benzimidazol-2-yl}amino)pyridin-4-yl]ethyl}piperazine-1-carboxylate] | 2
21 | CC(c1ccnc(Nc2nc3ccc(-c4cc(OCC(F)(F)F)ncn4)cc3[nH]2)c1)N1CCN(C(=O)C2CC2)CC1 (single isomer, unassigned) [Example 119.03, cyclopropyl(4-{(1R or 1S)-1-[2-({6-[6-(2,2,2-trifluoroethoxy)pyrimidin-4-yl]-1H-benzimidazol-2-yl}amino)pyridin-4-yl]ethyl}piperazin-1-yl)methanone] | 5.93
22 | CC(c1ccnc(Nc2nc3ccc(-c4cnn(CC5CC5(F)F)c4)c(Cl)c3[nH]2)c1)N1CCN(C(=O)C2CC2)CC1 (single isomer, unassigned) [Example 70.02, {4-[(1R or 1S)-1-(2-{[7-chloro-6-(1-{[(1RS)-2,2-difluorocyclopropyl]methyl}-1H-pyrazol-4-yl)-1H-benzimidazol-2-yl]amino}pyridin-4-yl)ethyl]piperazin-1-yl}(cyclopropyl)methanone] | 0.73
23 | CC(c1ccnc(Nc2nc3ccc(-c4cnn(CC5CCC5)c4)c(Cl)c3[nH]2)c1)N1CCN(C(=O)OC(C)(C)C)CC1 (single isomer, unassigned) [Example 75.01, tert-butyl 4-{(1R or 1S)-1-[2-({7-chloro-6-[1-(cyclobutylmethyl)-1H-pyrazol-4-yl]-1H-benzimidazol-2-yl}amino)pyridin-4-yl]ethyl}piperazine-1-carboxylate] | 20
24 | COc1cncnc1-c1ccc2nc(Nc3cc(C(C)N4CCN(C(=O)CC5CC5)CC4)ccn3)[nH]c2c1 (single isomer, unassigned) [Example 35.03.02.B, 2-cyclopropyl-1-{4-[(1S or 1R)-1-(2-{[6-(5-methoxypyrimidin-4-yl)-1H-benzimidazol-2-yl]amino}pyridin-4-yl)ethyl]piperazin-1-yl}ethanone] | 32.8
25 | CN(C)c1cc(-c2ccc3nc(Nc4cc(CN5CCN(C(=O)CC(F)(F)F)CC5)ccn4)[nH]c3c2)ccn1 [Example 135.02, 1-(4-{[2-({6-[2-(dimethylamino)pyridin-4-yl]-1H-benzimidazol-2-yl)amino)pyridin-4-yl]methyl}piperazin-1-yl)-3,3,3-trifluoropropan-1-one] | 23
26 | Cn1ccc(-c2ccc3nc(Nc4cc(CN5CCN(C(=O)CC(F)(F)F)CC5)ccn4)[nH]c3c2)n1 [Example 40.01, 3,3,3-trifluoro-1-{4-[(2-{[6-(1-methyl-1H-pyrazol-3-yl)-1H-benzimidazol-2-yl]amino}pyridin-4-yl)methyl]piperazin-1-yl}propan-1-one] | 1130
27 | COc1c(OCC2CC2)ncnc1-c1ccc2nc(Nc3cc(CN4CCN(C(=O)CC(F)(F)F)CC4)ccn3)[nH]c2c1 [Example 65.01.02, 1-(4-{[2-({6-[6-(cyclopropylmethoxy)-5-methoxypyrimidin-4-yl]-1H-benzimidazol-2-yl}amino)pyridin-4-yl]methyl}piperazin-1-yl)-3,3,3-trifluoropropan-1-one] | 58.4
